Among the data in US6727264B1 (Synaptic Pharmaceutical Corporation, priority 2001, dated 2004) are Ki values, retold here.

The target of the assay is rat MCH-1 (Rattus norvegicus, UniProt P97639). Put plainly: Radioligand binding assay at cloned rat MCH1 receptor ([3H] Compound A). The following applies: cloned rat MCH1 receptor, membranes from Peakr293 cells, 0.08 nM [3H] Compound A; read-out: Ki (nM) rMCH1. On the set-up: host or cells: Peak rapid 293 (Peakr293) cells, transient calcium phosphate transfection, membranes.
Sequence of rat MCH-1 (P97639 whole entry): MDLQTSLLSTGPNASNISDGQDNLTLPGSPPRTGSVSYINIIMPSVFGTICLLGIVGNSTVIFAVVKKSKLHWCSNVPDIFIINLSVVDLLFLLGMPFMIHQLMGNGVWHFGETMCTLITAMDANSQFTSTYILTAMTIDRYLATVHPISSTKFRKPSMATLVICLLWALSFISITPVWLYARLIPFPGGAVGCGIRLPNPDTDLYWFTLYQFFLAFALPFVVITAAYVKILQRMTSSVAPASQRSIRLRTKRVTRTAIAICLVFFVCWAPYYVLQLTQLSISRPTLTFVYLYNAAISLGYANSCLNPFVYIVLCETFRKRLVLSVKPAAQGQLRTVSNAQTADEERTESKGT
Regarding `CC(C)C(=O)Nc1cccc(C2CCN(Cc3ccc4c(c3)OCCCO4)CC2)c1` [Example 234], the Ki (in general, the dissociation constant of the complex between target and ligand, obtained from inhibition or displacement) amounted to 116 nM.
As for `CC(C)C(=O)Nc1cccc(C2CCN(Cc3c[nH]nc3-c3cccs3)CC2)c1` [Example 235], the Ki came to 412 nM.
In the case of `CC(C)C(=O)Nc1cccc(C2CCN(Cc3ccc(-c4cccs4)s3)CC2)c1` [Example 236] it was 97.7 nM; in that of `CC(C)C(=O)Nc1cccc(C2CCN(Cc3ccc(-c4cc(C(F)(F)F)n(C)n4)s3)CC2)c1` [Example 238], 65.9 nM; in that of `CC(C)C(=O)Nc1cccc(C2CCN(Cc3cc4ccccc4s3)CC2)c1` [Example 253], 362 nM.
Take `CC(C)C(=O)Nc1cccc(C2CCN(Cc3ccc(-c4cccc(OC(F)(F)F)c4)o3)CC2)c1` [Example 254]: the Ki is 401 nM.
In the case of `CC(C)C(=O)Nc1cccc(C2CCN(Cc3ccc4ccccc4n3)CC2)c1` [Example 255] it was 590 nM; in that of `CC(C)C(=O)Nc1cccc(C2CCN(Cc3ccc(-n4ccnc4)cc3)CC2)c1` [Example 256], 321 nM.
In the case of `CC(C)C(=O)Nc1cccc(C2CCN(Cc3ccc4c(c3)Cc3ccccc3-4)CC2)c1` [Example 257] it was 37.2 nM; in that of `CC(C)C(=O)Nc1cccc(C2CCN(Cc3ccc(Oc4ccccc4)cc3)CC2)c1` [Example 259], 15.4 nM; in that of `CC(C)C(=O)Nc1cccc(C2CCN(Cc3ccc(-c4ccccc4)cc3)CC2)c1` [Example 260], 77.7 nM.
With `CCCCN(CCCC)c1ccc(CN2CCC(c3cccc(NC(=O)C(C)C)c3)CC2)cc1` [Example 261] the figure was 6.5 nM.
Regarding `Cc1ccc(Sc2ccc(CN3CCC(c4cccc(NC(=O)C(C)C)c4)CC3)cc2[N+](=O)[O-])cc1` [Example 262], the Ki is 64.1 nM.
Take `CC(C)C(=O)Nc1cccc(C2CCN(Cc3ccc(-c4csnn4)cc3)CC2)c1` [Example 263]: the Ki amounted to 156 nM.
With `Cc1ccc(C(=O)CCCN2CCC(c3cccc(NC(=O)C(C)C)n3)CC2)cc1C` [Example 264] the figure was 54.7 nM; with `CC(C)C(=O)Nc1cccc(C2CCN(CCCC(c3ccc(F)cc3)c3ccc(F)cc3)CC2)n1` [Example 265], 13.5 nM.
With `CC(C)C(=O)Nc1cccc(C2CCN(Cc3ccc(Oc4ccc(F)c(F)c4)cc3)CC2)n1` [Example 266] the figure was 6.4 nM; with `CCn1c2ccccc2c2cc(CN3CCC(c4ccc(C)c(NC(=O)C(C)C)c4)CC3)ccc21` [Example 268], 20.3 nM.
In the case of `Cc1ccc(C2CCN(Cc3ccc(Oc4ccc(F)c(F)c4)cc3)CC2)cc1NC(=O)C(C)C` [Example 269] it was 27.4 nM.
Consider `CCn1c2ccccc2c2cc(CN3CCC(c4cc(NC(=O)C(C)C)ccc4C)CC3)ccc21` [Example 270], for which the Ki turned out to be 3.4 nM.
In the case of `Cc1ccc(C2CCN(CCCC(c3ccc(F)cc3)c3ccc(F)cc3)CC2)cc1NC(=O)C(C)C` [Example 271] it was 40.1 nM; in that of `CC(=O)c1cccc(O[C@@H](CCN2CCC(c3ccc(C)c(NC(=O)C(C)C)c3)CC2)c2ccccc2)c1` [Example 273], 196 nM.
Consider `CCn1c2ccccc2c2cc(CN3CCC(c4ccccc4NC(=O)C(C)C)CC3)ccc21` [Example 274], for which the Ki is 844 nM.
In the case of `Cc1ccc(NC(=O)C(C)C)cc1C1CCN(CCCC(c2ccc(F)cc2)c2ccc(F)cc2)CC1` [Example 275] it was 3.1 nM; in that of `CC(C)C(=O)Nc1ccccc1C1CCN(CCCC(c2ccc(F)cc2)c2ccc(F)cc2)CC1` [Example 276], 734 nM; in that of `CC(C)C(=O)Nc1ccc(OC(F)(F)F)cc1C1CCN(CCCC(c2ccc(F)cc2)c2ccc(F)cc2)CC1` [Example 277], 118 nM.
With `O=C(Nc1cccc(C2CCN(CC[C@@H](O)c3ccccc3)CC2)c1)C1CC1` [Example 278] the figure was 85.8 nM; with `CC(C)C(=O)Nc1cccc(C2CCN(CCCC(O)c3ccccc3)CC2)c1` (centres unmarked) [Example 279], 74.5 nM; with `CC(C)C(=O)Nc1cccc(C2CCN(CCCCC(O)c3ccccc3)CC2)c1` (centres unmarked) [Example 280], 27.6 nM.
With `CC(C)C(=O)Nc1cccc(C2CCN(CCCCCC(O)c3ccccc3)CC2)c1` (centres unmarked) [Example 281] the figure was 7.9 nM; with `CC(C)C(=O)Nc1cccc(C2CCN(CCCCCCC(O)c3ccccc3)CC2)c1` (centres unmarked) [Example 282], 23.5 nM.
In the case of `Cc1onc(-c2c(Cl)cccc2Cl)c1C(=O)OC(CCCN1CCC(c2cccc(NC(=O)C(C)C)c2)CC1)c1ccccc1` (centres unmarked) [Example 284, 4-{4-[3-(ISOBUTYRYLAMINO)PHENYL]-1-PIPERIDINYL}-1-PHENYLBUTYL 3-(2,6-DICHLOROPHENYL)-5-METHYL-4-ISOXAZOLECARBOXYLATE], the Ki came out at 16.3 nM.
In the case of `CC(C)C(=O)Nc1cccc(C2CCN(CCCC(OC(=O)Cc3ccc(F)cc3)c3ccccc3)CC2)c1` (centres unmarked) [Example 285] it was 10.3 nM; in that of `CC(C)C(=O)Nc1cccc(C2CCN(CCCOC(=O)Cc3ccc(F)cc3)CC2)c1` [Example 286], 67.8 nM; in that of `Cc1onc(-c2c(F)cccc2Cl)c1C(=O)OCCCN1CCC(c2cccc(NC(=O)C(C)C)c2)CC1` [Example 287, 3-{4-[3-(ISOBUTYRYLAMINO)PHENYL]-1-PIPERIDINYL}PROPYL 3-(2-CHLORO-6-FLUOROPHENYL)-5-METHYL-4-ISOXAZOLECARBOXYLATE], 34.3 nM.
`Cc1onc(-c2c(Cl)cccc2Cl)c1C(=O)OCCCN1CCC(c2cccc(NC(=O)C(C)C)c2)CC1` [Example 288, 3-{4-[3-(ISOBUTYRYLAMINO)PHENYL]-1-PIPERIDINYL}PROPYL 3-(2,6-DICHLOROPHENYL)-5-METHYL-4-ISOXAZOLECARBOXYLATE]: the Ki worked out at 30.2 nM.
For `Cc1onc(-c2ccccc2Cl)c1C(=O)OCCCN1CCC(c2cccc(NC(=O)C(C)C)c2)CC1` [Example 289, 3-{4-[3-(ISOBUTYRYLAMINO)PHENYL]-1-PIPERIDINYL}PROPYL 3-(2-CHLOROPHENYL)-5-METHYL-4-ISOXAZOLECARBOXYLATE], the Ki was 31.8 nM.
In the case of `Cc1onc(-c2c(Cl)cccc2Cl)c1C(=O)O[C@@H](CCN1CCC(c2cccc(NC(=O)C(C)C)c2)CC1)c1ccccc1` [Example 290, (1S)-3-{4-[3-(ISOBUTYRYLAMINO)PHENYL]-1-PIPERIDINYL}-1-PHENYLPROPYL 3-(2,6-DICHLOROPHENYL)-5-METHYL-4-ISOXAZOLECARBOXYLATE] it was 51.9 nM; in that of `Cc1onc(-c2c(F)cccc2Cl)c1C(=O)OCCCCN1CCC(c2cccc(NC(=O)C(C)C)c2)CC1` [Example 291, 4-{4-[3-(ISOBUTYRYLAMINO)PHENYL]-1-PIPERIDINYL}BUTYL 3-(2-CHLORO-6-FLUOROPHENYL)-5-METHYL-4-ISOXAZOLECARBOXYLATE], 24.3 nM.
With `Cc1onc(-c2ccccc2Cl)c1C(=O)OCCCCN1CCC(c2cccc(NC(=O)C(C)C)c2)CC1` [Example 292, 4-{4-[3-(ISOBUTYRYLAMINO)PHENYL]-1-PIPERIDINYL}BUTYL 3-(2-CHLOROPHENYL)-5-METHYL-4-ISOXAZOLECARBOXYLATE] the figure was 18.4 nM.
With `Cc1onc(-c2ccccc2)c1C(=O)OCCCN1CCC(c2cccc(NC(=O)C(C)C)c2)CC1` [Example 293, 3-{4-[3-(ISOBUTYRYLAMINO)PHENYL]-1-PIPERIDINYL}PROPYL 5-METHYL-3-PHENYL-4-ISOXAZOLECARBOXYLATE] the figure was 39.9 nM; with `Cc1onc(-c2c(Cl)cccc2Cl)c1C(=O)OCCCCN1CCC(c2cccc(NC(=O)C(C)C)c2)CC1` [Example 294, 4-{4-[3-(ISOBUTYRYLAMINO)PHENYL]-1-PIPERIDINYL}BUTYL 3-(2,6-DICHLOROPHENYL)-5-METHYL-4-ISOXAZOLECARBOXYLATE], 15.8 nM; with `Cc1onc(-c2c(F)cccc2Cl)c1C(=O)OC(CCCN1CCC(c2cccc(NC(=O)C(C)C)c2)CC1)c1ccccc1` (centres unmarked) [Example 295, 4-{4-[3-(ISOBUTYRYLAMINO)PHENYL]-1-PIPERIDINYL}-1-PHENYLBUTYL 3-(2-CHLORO-6-FLUOROPHENYL)-5-METHYL-4-ISOXAZOLECARBOXYLATE], 8.7 nM.
On to `Cc1onc(-c2ccccc2)c1C(=O)OCCCCN1CCC(c2cccc(NC(=O)C(C)C)c2)CC1` [Example 296, 4-{4-[3-(ISOBUTYRYLAMINO)PHENYL]-1-PIPERIDINYL}BUTYL 5-METHYL-3-PHENYL-4-ISOXAZOLECARBOXYLATE], for which the Ki is 20 nM.
As to `Cc1onc(-c2c(Cl)cccc2Cl)c1C(=O)OCCCCCCN1CCC(c2cccc(NC(=O)C(C)C)c2)CC1` [Example 297, 6-{4-[3-(ISOBUTYRYLAMINO)PHENYL]-1-PIPERIDINYL}HEXYL 3-(2,6-DICHLOROPHENYL)-5-METHYL-4-ISOXAZOLECARBOXYLATE], the inhibition constant (Ki) worked out at 11.9 nM.
On to `Cc1onc(-c2ccccc2)c1C(=O)OCCCCCCN1CCC(c2cccc(NC(=O)C(C)C)c2)CC1` [Example 298, 6-{4-[3-(ISOBUTYRYLAMINO)PHENYL]-1-PIPERIDINYL}HEXYL 5-METHYL-3-PHENYL-4-ISOXAZOLECARBOXYLATE], for which the Ki stood at 40.1 nM.
With `CC(C)C(=O)Nc1cccc(C2CCN(CCCCOC(=O)Cc3ccc(F)cc3)CC2)c1` [Example 299] the figure was 37.5 nM; with `Cc1onc(-c2ccccc2Cl)c1C(=O)OC(CCCN1CCC(c2cccc(NC(=O)C(C)C)c2)CC1)c1ccccc1` (centres unmarked) [Example 300, 4-{4-[3-(ISOBUTYRYLAMINO)PHENYL]-1-PIPERIDINYL}-1-PHENYLBUTYL 3-(2-CHLOROPHENYL)-5-METHYL-4-ISOXAZOLECARBOXYLATE], 7.6 nM; with `CC(C)C(=O)Nc1cccc(C2CCN(CC[C@H](NC(=O)C(c3ccccc3)c3ccccc3)c3ccccc3)CC2)c1` [Example 304], 4 nM.
In the case of `CC(C)C(=O)Nc1cccc(C2CCN(CC[C@H](NC(=O)c3cccc(Cl)c3)c3ccccc3)CC2)c1` [Example 305] it was 177 nM.
With `CC(C)C(=O)Nc1cccc(C2CCN(CC[C@H](NC(=O)c3cc(Cl)cc(Cl)c3)c3ccccc3)CC2)c1` [Example 306] the figure was 168 nM; with `CCSc1ncccc1C(=O)N[C@@H](CCN1CCC(c2cccc(NC(=O)C(C)C)c2)CC1)c1ccccc1` [Example 307], 97.4 nM; with `CC(C)C(=O)Nc1cccc(C2CCN(CC[C@H](NC(=O)c3ccc(-c4ccccc4)cc3)c3ccccc3)CC2)c1` [Example 308], 402 nM.
